# Patent publication US12427134B2, “Methods of reducing the risk of cardiovascular events in a subject with atrial fibrillation and/or atrial flutter” (priority 2019, dated 2025)
# System: hypertriglyceridemic patients with cardiovascular disease or at high risk for cardiovascular disease
# Test: REDUCE-IT: primary and key secondary endpoints adjusted for baseline covariates (stepwise selection) and time varying post-baseline lipids
# Type: in vivo, human
# Settings: ITT
# Protocol: The primary efficacy analysis was performed on the ITT population. A sensitivity analysis was performed using the mITT and PP populations. As a sensitivity analysis, patients who discontinued study drug prematurely were censored for the primary composite endpoint analysis on the date of drug discontinuation. The primary analysis was repeated using this censoring rule for the mITT population. As a supportive analysis, a multivariable, stratified Cox proportional hazards model was constructed for the primary endpoint to evaluate the treatment effect adjusting for important covariates.
# As an additional exploratory analysis, the relationship between post-baseline biomarker values and treatment effects with the primary and key secondary endpoints were assessed by adding biomarker values (for example, at 4 months, or at 1 year, etc.) as time-dependent covariates in the Cox proportional hazards model. Diagnostic plots for the proportional hazard's assumption was evaluated. Weight was measured at the screening visit and at all follow-up visits, including the last visit of the study. Waist circumference was measured at the randomization visit (Visit 2; Day 0), Visit 5 (Day 720) and the last visit of the study. Descriptive statistics were presented by visit and treatment group for baseline, post-treatment change from baseline, and the percent change from baseline. Analysis methods for repeated measurements were used to compare percent change from baseline between treatments.
# In the main analysis of the primary endpoint for the REDUCE-IT trial, treatment was the only covariate employed in the stratified Cox proportional hazards model. Stratification variables included CV risk category at baseline (primary prevention cohort and secondary prevention cohort), use of ezetimibe at baseline (yes/no), and geographical region (Westernized, Eastern European, and Asia Pacific).
# The model included treatment and any of the following variables, identified by a stepwise selection procedure: (1) sex; (2) age at baseline (<65 or ≥65 years); (3) race (white and non-white); (4) presence/absence of diabetes at baseline; (5) baseline LDL-C (by tertile); (6) baseline HDL-C (by tertile); (7) baseline non-HDL-C (by tertile); (8) baseline TG (by tertile); (9) baseline hsCRP (≤3 mg/Land >3 mg/L); (10) baseline apo B (by tertile); (11) baseline RLP-C (by tertile); (12) Hopkins calculated LDL-C at baseline (by tertile); (13) waist/height ratio at baseline; (14) waist circumference at baseline.
# The SAS proportional hazard regression procedure was used to automatically conduct the stepwise selection of the important baseline covariates. The minimum p-value for the inclusion of the baseline covariate into the proportional hazard model was 0.05, and these selected baseline covariates with p<0.10 would remain in the final model as important baseline covariates after all baseline covariates were evaluated by the model. The HR, 95% CI, and p-value comparing the two treatment groups, and the HR, 95% CI, and p-value for adjusting each selected important baseline covariate in the final model were presented.
# As an additional exploratory analysis, the relationships between post-baseline lipid values and treatment effects with the primary and key secondary endpoints were assessed by adding lipid values (at 4 months, 1 year, etc.) as time varying covariates in the Cox proportional hazards model. Diagnostic plots for the proportional hazard's assumption was evaluated.
# [1] = Overall (with all selected covariates)
# [2] = adjusting baseline covariate: Age at baseline (<65 or ≥65 years)
# [3] = adjusting baseline covariate: Baseline hsCRP (≤3 mg/L or >3 mg/L)
# [4] = adjusting baseline covariate: Baseline non-HDL-C (by tertile)
# [5] = adjusting baseline covariate: Presence/absence of diabetes at baseline
# [6] = adjusting baseline covariate: Sex
# [7] = adjusting time varying covariate HDL-C (mg/dL)
# [8] = adjusting time varying covariate LDL-C (Hopkins) (mg/dL)
# [9] = adjusting time varying covariate LDL-C (ultracentrifugation) (mg/dL)
# [10] = adjusting time varying covariate LDL-C derived (mg/dL)
# [11] = adjusting time varying covariate RLP-C (mg/dL)
# [12] = adjusting time varying covariate TG (mg/dL)
# [13] = adjusting time varying covariate apo B (mg/dL)
# [14] = adjusting time varying covariate hsCRP (mg/dL)
smiles,measurement,setting,value
"CC/C=C\C/C=C\C/C=C\C/C=C\C/C=C\CCCC(=O)OCC [AMR101, eicosapentaenoic acid ethyl ester]","Time to key secondary endpoint, HR (95% CI) AMR101/Placebo",[1],0.730 (0.647-0.825)
same,"Time to primary endpoint, HR (95% CI) AMR101/Placebo",[1],0.750 (0.680-0.828)
same,"Time to key secondary endpoint, HR (95% CI) AMR101/Placebo",[2],0.739 (0.654-0.834)
same,"Time to primary endpoint, HR (95% CI) AMR101/Placebo",[2],0.755 (0.684-0.833)
same,"Time to key secondary endpoint, HR (95% CI) AMR101/Placebo",[3],0.731 (0.648-0.826)
same,"Time to primary endpoint, HR (95% CI) AMR101/Placebo",[3],0.750 (0.679-0.828)
same,"Time to key secondary endpoint, HR (95% CI) AMR101/Placebo",[4],0.738 (0.654-0.833)
same,"Time to primary endpoint, HR (95% CI) AMR101/Placebo",[4],0.755 (0.684-0.833)
same,"Time to key secondary endpoint, HR (95% CI) AMR101/Placebo",[5],0.731 (0.647-0.825)
same,"Time to primary endpoint, HR (95% CI) AMR101/Placebo",[5],0.750 (0.679-0.827)
same,"Time to key secondary endpoint, HR (95% CI) AMR101/Placebo",[6],0.734 (0.650-0.829)
same,"Time to primary endpoint, HR (95% CI) AMR101/Placebo",[6],0.751 (0.680-0.829)
same,"Time to key secondary endpoint, HR (95% CI) for Treatment (AMR101 vs Placebo)",[7],0.710 (0.629-0.802)
same,"Time to primary endpoint, HR (95% CI) for Treatment (AMR101 vs Placebo)",[7],0.730 (0.661-0.806)
same,"Time to primary endpoint, HR (95% CI) for Treatment (AMR101 vs Placebo)",adjusting time varying covariate LDL-C (Friedewald) (mg/dL),0.760 (0.688-0.839)
same,"Time to key secondary endpoint, HR (95% CI) for Treatment (AMR101 vs Placebo)",[8],0.761 (0.674-0.860)
same,"Time to primary endpoint, HR (95% CI) for Treatment (AMR101 vs Placebo)",[8],0.772 (0.699-0.852)
same,"Time to key secondary endpoint, HR (95% CI) for Treatment (AMR101 vs Placebo)",[9],0.737 (0.652-0.834)
same,"Time to primary endpoint, HR (95% CI) for Treatment (AMR101 vs Placebo)",[9],0.759 (0.687-0.839)
same,"Time to key secondary endpoint, HR (95% CI) for Treatment (AMR101 vs Placebo)",[10],0.740 (0.655-0.836)
same,"Time to primary endpoint, HR (95% CI) for Treatment (AMR101 vs Placebo)",[10],0.752 (0.681-0.830)
same,"Time to key secondary endpoint, HR (95% CI) for Treatment (AMR101 vs Placebo)",[11],0.768 (0.679-0.867)
same,"Time to primary endpoint, HR (95% CI) for Treatment (AMR101 vs Placebo)",[11],0.784 (0.709-0.866)
same,"Time to key secondary endpoint, HR (95% CI) for Treatment (AMR101 vs Placebo)",[12],0.754 (0.668-0.851)
same,"Time to primary endpoint, HR (95% CI) for Treatment (AMR101 vs Placebo)",[12],0.772 (0.700-0.853)
same,"Time to key secondary endpoint, HR (95% CI) for Treatment (AMR101 vs Placebo)",[13],0.752 (0.665-0.850)
same,"Time to primary endpoint, HR (95% CI) for Treatment (AMR101 vs Placebo)",[13],0.762 (0.690-0.842)
same,"Time to key secondary endpoint, HR (95% CI) for Treatment (AMR101 vs Placebo)",[14],0.745 (0.660-0.841)
same,"Time to primary endpoint, HR (95% CI) for Treatment (AMR101 vs Placebo)",[14],0.758 (0.686-0.836)
same,"Time to key secondary endpoint, HR (95% CI) for Treatment (AMR101 vs Placebo)",adjusting time varying covariate non-HDL-C (mg/dL),0.773 (0.684-0.874)
